Measurements from ChEMBL document CHEMBL1127866, “Cyclopentanespiro-3H-dihydro-pyrimidinones as Angiotensin II AT1 receptor antagonists” (Bioorg Med Chem Lett, 1994).

What was measured:
[1] = biological target: T1, Type-1 angiotensin II receptor B (Rattus norvegicus, UniProt P29089); assay: In vitro inhibition of specific binding of [125I]AII to Angiotensin II receptor, type 1 from rat liver membrane
T1 sequence (P29089 whole entry): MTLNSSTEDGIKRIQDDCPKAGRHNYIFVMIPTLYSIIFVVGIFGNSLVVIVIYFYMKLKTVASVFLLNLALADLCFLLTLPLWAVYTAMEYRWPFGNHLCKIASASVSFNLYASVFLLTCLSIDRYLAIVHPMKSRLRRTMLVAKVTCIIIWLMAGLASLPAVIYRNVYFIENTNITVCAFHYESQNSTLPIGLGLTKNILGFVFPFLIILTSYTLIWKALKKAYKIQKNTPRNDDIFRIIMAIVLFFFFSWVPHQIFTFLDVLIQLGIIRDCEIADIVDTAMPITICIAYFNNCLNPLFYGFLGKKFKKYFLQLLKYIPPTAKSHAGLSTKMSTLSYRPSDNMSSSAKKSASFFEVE

Rattus norvegicus [2] = assay: Tested for induced pressor response to AII (40 ng/kg, iv) in conscious normotensive rats at a compound dose of 3 mg/kg po for 180 min; type: functional
Rattus norvegicus [3] = assay: Tested for induced pressor response to AII (40 ng/kg, iv) in conscious normotensive rats at a compound dose of 3 mg/kg po for 120 min; type: functional
Rattus norvegicus [4] = assay: Tested for induced pressor response to AII (40 ng/kg, iv) in conscious normotensive rats at a compound dose of 3 mg/kg po for 0 min; type: functional
Rattus norvegicus [5] = assay: Tested for induced pressor response to AII (40 ng/kg, iv) in conscious normotensive rats at a compound dose of 3 mg/kg po for 90 min; type: functional
Monkey [6] = assay: Tested for induced pressor response to AII (100 ng/kg, iv) in conscious normotensive monkey at a compound dose of 3 mg/kg po for 2 hr; type: functional, Cercopithecidae
Monkey [7] = assay: Tested for induced pressor response to AII (100 ng/kg, iv) in conscious normotensive monkey at a compound dose of 3 mg/kg po for 3 hr; type: functional, Cercopithecidae
Monkey [8] = assay: Tested for induced pressor response to AII (100 ng/kg, iv) in conscious normotensive monkey at a compound dose of 3 mg/kg po for 5 hr; type: functional, Cercopithecidae
Monkey [9] = assay: Tested for induced pressor response to AII (100 ng/kg, iv) in conscious normotensive monkey at a compound dose of 3 mg/kg po for 4 hr; type: functional, Cercopithecidae
Rattus norvegicus [10] = assay: Tested for induced pressor response to AII (40 ng/kg, iv) in conscious normotensive rats at a compound dose of 3 mg/kg po for 30 min; type: functional
Monkey [11] = assay: Tested for induced pressor response to AII (100 ng/kg, iv) in conscious normotensive monkey at a compound dose of 3 mg/kg po for 0 hr; type: functional, Cercopithecidae
Rattus norvegicus [12] = assay: Tested for induced pressor response to AII (40 ng/kg, iv) in conscious normotensive rats at a compound dose of 3 mg/kg po for 15 min; type: functional
Monkey [13] = assay: Tested for induced pressor response to AII (100 ng/kg, iv) in conscious normotensive monkey at a compound dose of 3 mg/kg po for 1 hr; type: functional, Cercopithecidae
Rattus norvegicus [14] = assay: Tested for induced pressor response to AII (40 ng/kg, iv) in conscious normotensive rats at a compound dose of 3 mg/kg po for 60 min; type: functional

Compound	IC50 [1]	Delta MAP (Rattus norvegicus [2])	Delta MAP (Rattus norvegicus [3])	Delta MAP (Rattus norvegicus [4])	Delta MAP (Rattus norvegicus [5])	Delta MAP (Monkey [6])	Delta MAP (Monkey [7])	Delta MAP (Monkey [8])	Delta MAP (Monkey [9])	Delta MAP (Rattus norvegicus [10])	Delta MAP (Monkey [11])	Delta MAP (Rattus norvegicus [12])	Delta MAP (Monkey [13])	Delta MAP (Rattus norvegicus [14])
CCCCC1=NCC2(CCCC2)C(=O)N1Cc1ccc(-c2ccccc2C(=O)O)cc1	71 nM	–	–	–	–	–	–	–	–	–	–	–	–	–
CCCCC1=NC2(CCCC2)C(=O)N1Cc1ccc(-c2ccccc2-c2nnn[nH]2)cc1 [IRBESARTAN]	–	~17 mmHg	~18 mmHg	~45 mmHg	~17 mmHg	~15 mmHg	~18 mmHg	~25 mmHg	~23 mmHg	~22 mmHg	~33 mmHg	~22 mmHg	~9 mmHg	~20 mmHg
CCCCC1=NC(=O)C2(CCCC2)CN1Cc1ccc(-c2ccccc2C(=O)O)cc1	1300 nM	–	–	–	–	–	–	–	–	–	–	–	–	–
CCCCC1=NC2(CCCC2)CC(=O)N1Cc1ccc(-c2ccccc2-c2nn[nH]n2)cc1	1 nM	~17 mmHg	~15 mmHg	~35 mmHg	~18 mmHg	~29 mmHg	~29 mmHg	–	~32 mmHg	~15 mmHg	~33 mmHg	~10 mmHg	~27 mmHg	~14 mmHg
CCCCC1=NC2(CCCC2)C(C)(C)C(=O)N1Cc1ccc(-c2ccccc2-c2nnn[nH]2)cc1	2.2 nM	–	–	–	–	–	–	–	–	–	–	–	–	–
CCCCC1=NC2(CCCC2)CC(=O)N1Cc1ccc(-c2ccccc2C(=O)O)cc1	53 nM	–	–	–	–	–	–	–	–	–	–	–	–	–
